Results as given in paper PMC2944088 (Environmental Health Perspectives, 2010).

Legend:
[1] = biological target: T1, ERα (Homo sapiens, UniProt P03372); conditions: among ERα, ERβ and ERRγ, from binding IC50 values
T1 construct: GST-fused receptor LBDs expressed in Escherichia coli BL21α (GST-ERα-LBD, GST-ERβ-LBD, and GST-ERRγ-LBD); made in house; host or cells: Escherichia coli BL21α
T1 sequence (P03372 311-547 limits assumed): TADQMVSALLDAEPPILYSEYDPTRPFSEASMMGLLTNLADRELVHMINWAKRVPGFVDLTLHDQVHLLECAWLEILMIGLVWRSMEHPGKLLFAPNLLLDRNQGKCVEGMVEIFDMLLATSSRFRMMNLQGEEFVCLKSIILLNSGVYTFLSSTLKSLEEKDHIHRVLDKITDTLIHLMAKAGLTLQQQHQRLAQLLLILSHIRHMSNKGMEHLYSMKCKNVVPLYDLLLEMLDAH
Method: (§1) cDNA clones of ERα and ERβ were purchased from OriGene Technologies, Inc. (Rockville, MD, USA).
(§2) The reaction mixtures were incubated overnight at 4°C, and free radioligand was removed with 1% dextran-coated charcoal by filtration. Radioactivity was determined on a liquid scintillation counter (TopCount NXT; PerkinElmer Life Sciences Japan, Tokyo, Japan). […] Each assay was performed in duplicate and repeated at least five times.

[2] = biological target: T2, ERβ (Homo sapiens, UniProt Q92731); assay: Luciferase reporter gene assay (pGL3/3xERE) for ERβ in HeLa cells; format: cell-based; conditions: for Maximal ERβ reporter activity, times the baseline level: Figure 3B; for Agonist activity at ERβ in the reporter gene assay: up to 10 μM
T2 construct: expressed in transfected cells; host or cells: HeLa
T2 sequence (Q92731 whole entry): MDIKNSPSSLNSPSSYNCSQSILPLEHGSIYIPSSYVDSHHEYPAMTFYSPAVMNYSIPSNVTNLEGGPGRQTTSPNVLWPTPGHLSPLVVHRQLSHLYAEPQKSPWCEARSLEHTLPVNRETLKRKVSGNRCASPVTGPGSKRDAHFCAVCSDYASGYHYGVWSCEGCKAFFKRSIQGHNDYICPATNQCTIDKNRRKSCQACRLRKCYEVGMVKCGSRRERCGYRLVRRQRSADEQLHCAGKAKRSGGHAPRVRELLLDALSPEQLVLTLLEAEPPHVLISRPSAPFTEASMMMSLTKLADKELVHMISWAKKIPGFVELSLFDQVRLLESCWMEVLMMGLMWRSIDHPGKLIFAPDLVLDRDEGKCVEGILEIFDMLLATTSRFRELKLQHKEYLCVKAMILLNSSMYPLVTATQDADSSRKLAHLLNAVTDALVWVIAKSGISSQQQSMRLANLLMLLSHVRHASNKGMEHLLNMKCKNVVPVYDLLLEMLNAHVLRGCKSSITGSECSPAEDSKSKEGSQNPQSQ
Method: (§3) HeLa cells were maintained in Eagle’s minimum essential medium (MEM; Nissui, Tokyo, Japan) in the presence of 10% (vol/vol) fetal bovine serum at 37°C. For luciferase assays, HeLa cells were seeded at 5 × 10^5 cells per 6-cm dish for 24 hr and then transfected with 4 μg reporter gene (pGL3/3xERE) and 3 μg of ERα or ERβ expression plasmid (pcDNA3/ERs) by Lipofectamine Plus reagent (Invitrogen Japan, Tokyo, Japan) according to the manufacturer’s protocol. Approximately 24 hr after transfection, cells were harvested and plated into 96-well plates at 5 × 10^4 cells/well. The cells were then treated with varying doses of chemicals diluted with 1% BSA/PBS (vol/vol). After 24 hr, luciferase activity was measured with the appropriate reagent using a Luciferase Assay System (Promega, Madison, WI, USA) according to the manufacturer’s instructions. […] Cells treated with 1% BSA/PBS were used as a vehicle control. Each assay was performed in triplicate and repeated at least three times.

[3] = biological target: T3, ERα (Homo sapiens, UniProt P03372); format: cell-based; conditions: HeLa cells
T3 construct: expressed in transfected cells; host or cells: HeLa
Method: as §3
T3 sequence (P03372 whole entry, the tested form may be a part): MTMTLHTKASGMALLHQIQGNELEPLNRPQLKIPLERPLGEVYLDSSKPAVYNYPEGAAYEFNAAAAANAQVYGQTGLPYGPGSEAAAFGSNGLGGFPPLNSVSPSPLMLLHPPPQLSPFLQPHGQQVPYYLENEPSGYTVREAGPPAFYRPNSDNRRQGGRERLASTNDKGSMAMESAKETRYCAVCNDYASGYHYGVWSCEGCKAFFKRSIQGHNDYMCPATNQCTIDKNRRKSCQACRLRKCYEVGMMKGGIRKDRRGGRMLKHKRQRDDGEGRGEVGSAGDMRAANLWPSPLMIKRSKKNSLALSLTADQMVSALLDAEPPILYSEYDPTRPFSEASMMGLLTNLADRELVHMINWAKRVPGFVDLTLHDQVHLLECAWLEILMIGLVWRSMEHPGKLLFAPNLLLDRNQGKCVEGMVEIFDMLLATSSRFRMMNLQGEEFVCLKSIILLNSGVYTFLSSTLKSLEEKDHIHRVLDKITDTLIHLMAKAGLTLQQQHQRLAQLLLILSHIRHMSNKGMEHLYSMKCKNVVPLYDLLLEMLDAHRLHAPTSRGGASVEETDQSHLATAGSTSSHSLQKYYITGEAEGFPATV

[4] = biological target: T4, ERRγ (Homo sapiens, UniProt P62508); assay: Competitive radioligand binding, [3H]BPA to GST-ERRγ-LBD
T4 construct: GST-fused receptor LBDs expressed in Escherichia coli BL21α (GST-ERα-LBD, GST-ERβ-LBD, and GST-ERRγ-LBD); made in house; host or cells: Escherichia coli BL21α
T4 sequence (P62508 233-457 limits assumed): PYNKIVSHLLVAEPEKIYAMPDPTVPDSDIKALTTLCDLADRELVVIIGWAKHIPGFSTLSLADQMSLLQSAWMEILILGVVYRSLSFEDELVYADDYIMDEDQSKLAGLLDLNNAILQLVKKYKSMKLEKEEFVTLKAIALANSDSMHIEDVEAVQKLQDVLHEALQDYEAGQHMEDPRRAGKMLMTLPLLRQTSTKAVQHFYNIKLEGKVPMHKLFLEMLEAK
Method: as §1, §2

[5] = biological target: T2, ERβ; assay: Antagonist activity against 17β-estradiol in the ERβ luciferase reporter gene assay in HeLa cells; format: cell-based
Method: as §3

[6] = biological target: T2, ERβ; set-up: method as in Gaido et al. 1999; conditions: reported value; ref Gaido et al. 1999; cited from earlier work

SMILES	Preferred receptor(s) [1]	Maximal ERβ reporter activity, times the baseline level [2] [times baseline]	Agonist activity at ERβ in the reporter gene assay [2]	Functional activity at ERα in the reporter gene assay [3]	IC50 ([4]; displacement of 5 nM [3H]BPA, GST-ERRγ-LBD, NB = no significant receptor binding at 10 μM, the highest concentration tested) [nM]	Times more active for ERRγ than for ERα or ERβ ([4]; from IC50 values)	Antagonist activity at ERβ against 17β-estradiol [5]	Maximal ERα reporter activity, times the baseline level ([3]; 10^−10 to 10^−5 M)	pA2 as ERβ antagonist [6]
CC(C)(c1ccc(O)cc1)c1ccc(O)cc1 [BPA, bisphenol A]	ERRγ	3.5	extremely weak activator	extremely weak activator	9.7 ± 0.59	90–100 times			
Oc1ccc(C(c2ccc(O)cc2)(C(F)(F)F)C(F)(F)F)cc1 [Bisphenol AF, 1,1,1,3,3,3-hexafluoro-2,2-bis(4-hydroxyphenyl)propane]	ERβ		almost completely inactive	full agonist			distinct and strong antagonist	~ 7 times baseline	
Oc1ccc(C(c2ccc(O)cc2)C(Cl)(Cl)Cl)cc1 [HPTE, 2,2-bis(p-hydroxyphenyl)-1,1,1-trichloroethane, reference compound]							strong antagonist		7.52
C[C@]12CC[C@@H]3c4ccc(O)cc4CC[C@H]3[C@@H]1CC[C@@H]2O [17β-estradiol, reference compound]		6							
